Source: the supplement of paper PMC11451515

Test system: NOMO1
Assay: cell viability relative to DMSO control; higher = less cytotoxic
Conditions: 48 h
Outline: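 In 1536-well plates, 5 μl of leukemia cells were seeded per well: 500 cells/well for NOMO1 or SEM and 1000 cells/well for P12-Ichikawa. Each line had first been adapted for at least four passages in each medium. Library compounds in DMSO were pin-dosed at 11 threefold concentrations between 47 μM and 0.79 nM, and CellTiter-Glo One luminescence was read after 48 h at 37°C. Viability is a per-plate percentage relative to DMSO wells, with cell-free wells as background.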

[1] = HPLM + 10% dialyzed FBS, 0.000781 µM
[2] = HPLM + 10% dialyzed FBS, 0.00234 µM
[3] = HPLM + 10% dialyzed FBS, 0.00702 µM
[4] = HPLM + 10% dialyzed FBS, 0.0211 µM
[5] = HPLM + 10% dialyzed FBS, 0.0632 µM
[6] = HPLM + 10% dialyzed FBS, 0.19 µM
[7] = HPLM + 10% dialyzed FBS, 0.569 µM
[8] = HPLM + 10% dialyzed FBS, 1.71 µM
[9] = HPLM + 10% dialyzed FBS, 5.12 µM
[10] = HPLM + 10% dialyzed FBS, 15.4 µM
[11] = HPLM + 10% dialyzed FBS, 46.1 µM
[12] = RPMI 5 mM glucose + 10% FBS, 0.000781 µM
[13] = RPMI 5 mM glucose + 10% FBS, 0.00234 µM
[14] = RPMI 5 mM glucose + 10% FBS, 0.00702 µM
[15] = RPMI 5 mM glucose + 10% FBS, 0.0211 µM
[16] = RPMI 5 mM glucose + 10% FBS, 0.0632 µM
[17] = RPMI 5 mM glucose + 10% FBS, 0.19 µM
[18] = RPMI 5 mM glucose + 10% FBS, 0.569 µM
[19] = RPMI 5 mM glucose + 10% FBS, 1.71 µM
[20] = RPMI 5 mM glucose + 10% FBS, 5.12 µM
[21] = RPMI 5 mM glucose + 10% FBS, 15.4 µM
[22] = RPMI 5 mM glucose + 10% FBS, 46.1 µM
[23] = RPMI 5 mM glucose + 10% dialyzed FBS, 0.000781 µM
[24] = RPMI 5 mM glucose + 10% dialyzed FBS, 0.00234 µM
[25] = RPMI 5 mM glucose + 10% dialyzed FBS, 0.00702 µM
[26] = RPMI 5 mM glucose + 10% dialyzed FBS, 0.0211 µM
[27] = RPMI 5 mM glucose + 10% dialyzed FBS, 0.0632 µM
[28] = RPMI 5 mM glucose + 10% dialyzed FBS, 0.19 µM
[29] = RPMI 5 mM glucose + 10% dialyzed FBS, 0.569 µM
[30] = RPMI 5 mM glucose + 10% dialyzed FBS, 1.71 µM
[31] = RPMI 5 mM glucose + 10% dialyzed FBS, 5.12 µM
[32] = RPMI 5 mM glucose + 10% dialyzed FBS, 15.4 µM
[33] = RPMI 5 mM glucose + 10% dialyzed FBS, 46.1 µM

SMILES	cell viability [1] [%]	cell viability [2] [%]	cell viability [3] [%]	cell viability [4] [%]	cell viability [5] [%]	cell viability [6] [%]	cell viability [7] [%]	cell viability [8] [%]	cell viability [9] [%]	cell viability [10] [%]	cell viability [11] [%]	cell viability [12] [%]	cell viability [13] [%]	cell viability [14] [%]	cell viability [15] [%]	cell viability [16] [%]	cell viability [17] [%]	cell viability [18] [%]	cell viability [19] [%]	cell viability [20] [%]	cell viability [21] [%]	cell viability [22] [%]	cell viability [23] [%]	cell viability [24] [%]	cell viability [25] [%]	cell viability [26] [%]	cell viability [27] [%]	cell viability [28] [%]	cell viability [29] [%]	cell viability [30] [%]	cell viability [31] [%]	cell viability [32] [%]	cell viability [33] [%]
Cc1c(C)c2c(c(C)c1O)CCC(C)(COc1ccc(CC3SC(=O)NC3=O)cc1)O2 (stereo unspecified)	122	123	114	133	125	126	142	138	132	116	125																						
CNC(=O)Nc1ccc(-c2nc(N3CC4CCC(C3)O4)c3cnn(C4CCC5(CC4)OCCO5)c3n2)cc1	101	88.6	97.2	86.1	73	75.9	70.4	63.8	63.3	57.2	51.6	108	115	118	99.3	91.4	81.1	74.7	73	72.2	65.1	69.8	105	101	84.3	79.3	77.6	68.5	71.5	62	62	55.1	52.4
CN(C)C1=C(Br)C=C(C=C1)C\2NC3=C(\C4=C2C(=O)CC(C)(C)C4)C5=CC=CC=C5C=C3 (stereo unspecified)												103	124	119	113	114	103	113	98	110	103	102	75.9	117	158	172	182	71.7	52.3	89.3	143	74.4	94.8
Cc1noc(-c2ccc(CSCCC(=O)O)cc2)c1NC(=O)OC(C)c1ccccc1Cl (stereo unspecified)	92.3	89.9	105	104	99.8	97.1	95.6	97	113	111	95.7	85.7	97.5	99	89.6	109	95.4	102	100	95.5	110	105	79	99.1	87.3	86.3	99.1	92.2	99.5	95.8	100	104	107
C[C@]12CC[C@H]3[C@@H](CCC/4=C/C(=O)CC[C@]34C)[C@@H]1CC[C@@H]2OC(=O)CCC5CCCC5	90.8	100	103	113	96.1	113	118	104	111	114	110	86.5	107	119	109	101	108	114	113	114	105	109	94.6	105	116	110	111	116	130	107	116	111	109
NC(=O)NO	88.2	102	110	110	116	100	88.9	84.9	16.6	3.7	2.4	83.9	90.8	85.6	88.7	86.1	90.2	90.8	94.6	37.3	10.4	1.27	81.9	90.4	92.6	95.3	98	87.2	91.1	96	33	10	1.29
Cc1c[nH]c(-c2cnc(NCCNc3ccc(C#N)cn3)nc2-c2ccc(Cl)cc2Cl)n1	72.9	85.8	94.2	78.5	87.3	101	89.5	93.3	80.3	67.5	57.7	66.4	79.7	83.7	80.7	96.7	83.5	77.5	85.7	76.5	81.3	64.2	76.7	80.8	90.1	89.2	83.6	90.2	85.9	94.6	64.8	88	64.7
OCCC#Cc1nc(-c2ccc(F)cc2)c(-c2ccncc2)n1CCCc1ccccc1												119	122	122	135	127	138	150	136	128	132	116											
CON(C)C(=O)N1/N=C(S[C@@]1(CCCN)C2=CC=CC=C2)/C3=CC(=CC=C3F)F	119	113	117	87.5	34.4	35.8	38.6	38.1	24.6	36.3	21.6	115	114	133	69.4	23.8	32.3	22.3	27.6	23	25.3	21.1											
